System: LPS-activated RAW 264.7 cells
Test: Nitric oxide (NO) assay, Griess reagent
Type: cell-based
Settings: LPS 1 μg/mL, 24 hours
Method: Nitric Oxide (NO) Assay. NO secreted by LPS-activated RAW 264.7 cells into the culture medium was determined as nitrite by the Griess reagent. RAW 264.7 1 cells obtained from the American Type Culture Collection (Manassas, VA, USA) were cultured in DMEM supplemented with 2 mM glutamine, antibiotics (100 U/mL penicillin and 100 μg/mL streptomycin), and 10% heat-inactivated fetal bovine serum. The cells were initially grown in 75 cm^2 culture flasks at 37° C. in a humidified incubator with 5% CO2. After reaching 80% confluency, the cells were split by seeding them on 96-well plates (0.2 mL/well) at a density of 1.5×10^5 cells/mL. After a 24-hour incubation at 37° C., the cells were treated with LPS (1 μg/mL) with or without test compounds in various concentrations. Vehicle control cells were treated with dimethyl sulfoxide alone at a final concentration of 0.1%. Culture media from control and treated cells were collected after 24 hours of incubation and were frozen at −80° C. before analysis. For the determination of NO (as […]), […], aliquots of the thawed culture media were mixed with an equal volume of Griess reagent on a 96-well plate. […] The samples were incubated for 10 minutes at room temperature and then the absorbance was read at 550 nm using a SpectraMax 190 (Molecular Devices, Sunnyvale, CA) plate reader.

COc1cc(O)c(CC=C(C)C)c(O)c1-c1cc(-c2ccc(O)cc2)on1 [isoxazole derivative, 4-(5-(4-hydroxyphenyl)isoxazol-3-yl)-5-methoxy-2-(3-methylbut-2-en-1-yl)benzene-1,3-diol]
Concentration from which anti-inflammatory activity (decreased NO production) was displayed: ~10 µM
